Assay results taken from PubChem BioAssay (NCI).
Where “and” joins values, the source holds several entries; their conditions need not be identical. Equal values may be shown once.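 These data come from cells grown in 96-well plates and exposed to compound for 48 hours at five concentrations. GI50 is the concentration that inhibits growth by half. TGI: concentration producing complete growth inhibition.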

Legend:
Assay in all cases: NCI anticancer screen, dose series, 48 h
A498 renal = system: A498 renal
HCC-2998 colon = system: HCC-2998 colon
HCT-116 colon = system: HCT-116 colon
HOP-62 NSCLC = system: HOP-62 NSCLC
K-562 leukemia = system: K-562 leukemia
SK-MEL-28 melanoma = system: SK-MEL-28 melanoma
SNB-75 CNS = system: SNB-75 CNS
KM12 colon = system: KM12 colon
BT-549 breast = system: BT-549 breast
NCI/ADR-RES ovarian = system: NCI/ADR-RES ovarian

Compound	TGI (A498 renal) [µM]	TGI (HCC-2998 colon) [µM]	TGI (HCT-116 colon)	TGI (HOP-62 NSCLC) [µM]	TGI (K-562 leukemia)	TGI (SK-MEL-28 melanoma)	TGI (SNB-75 CNS)	TGI (KM12 colon)	GI50 (BT-549 breast) [µM]	TGI (BT-549 breast)	GI50 (HCC-2998 colon) [µM]	GI50 (HCT-116 colon) [µM]	GI50 (HOP-62 NSCLC) [µM]	GI50 (KM12 colon)	GI50 (NCI/ADR-RES ovarian) [µM]	TGI (NCI/ADR-RES ovarian) [µM]	GI50 (SK-MEL-28 melanoma) [µM]	GI50 (SNB-75 CNS) [µM]	GI50 (A498 renal) [µM]	GI50 (K-562 leukemia) [µM]
Cc1nn(C)c(=S)n(C)c1=O	37.7	> 100	10.8 µM	11.4	> 100 µM	> 100 µM	2.73 µM													
COC(=O)c1ccccc1N=Cc1ccc(N(CCC#N)S(=O)(=O)c2ccccc2)cc1	> 100		> 100 µM	> 100	> 100 µM	> 100 µM	> 100 µM	> 100 µM												
COC(=O)C(=O)C(C#N)c1ccc(Cl)c(Cl)c1 (stereo not drawn)			> 100 µM		> 100 µM	> 100 µM	> 100 µM	> 100 µM												
COc1ccc(/C=C/C(C(=O)O)C(=O)O)cc1		> 100	> 100 µM	> 100	> 100 µM	> 100 µM		> 100 µM												
CN(Cc1ccccc1)C1(N(C)Cc2ccccc2)CC1	> 100	> 100	> 100 µM	> 100	> 100 µM	> 100 µM	> 100 µM	> 100 µM												
C=CCNC(=S)OCCCCCCCCCC	33.3	31.8	30.6 µM	36.3	29.6 µM	44.9 µM	49.8 µM	26.6 µM												
COc1ccc(CCC2NCCc3cc(OC)c(OC)cc32)cc1 (stereo not drawn)	> 100	> 100	> 100 µM	> 100	> 100 µM	> 100 µM	> 100 µM	> 100 µM												
CCC(C)CC(CC)NCCN1CCN(C(CC)CC(C)CC)C1=S (stereo not drawn)		2.9	3.27 µM	3.21		3.06 µM	2.82 µM	3.22 µM	2.39	4.52 µM	1.57	1.79	1.82	1.71 µM	1.66	3.39	1.69	1.49		
COC(=O)c1cc2c(cc1Cl)SC(N(N(C)C)S(=O)(=O)c1ccc(Cl)cc1)=NS2(=O)=O	30.1	32.7	29 µM	48.7	23.8 µM	29.3 µM	69.9 µM	27 µM			16.1	15.6	19.6	13.8 µM	15.2	39.9	15.9	23.7	15.1	11.3
N#Cc1nc(Nc2ccc([N+](=O)[O-])cc2)sc1N	> 100	33.1	> 100 µM	75.8	> 100 µM	> 74.3 µM	> 100 µM	> 100 µM												
Nc1nc(Nc2ccc3c(c2)CCC(N2CCCC2)CC3)nn1-c1cc2c(nn1)-c1ccccc1CCC2 (stereo not drawn)	1.24	2.97	2.02 µM	3.11	2.48 µM	3.01 µM	2.18 µM	2.73 µM	1.52	3.01 µM	1.55	0.754	1.5	1.02 µM			1.61	0.792	0.274	0.701
COC1(OC)c2ccccc2C2(O)c3ccccc3C(=O)C12 (stereo not drawn)		> 100	> 100 µM		> 100 µM	> 100 µM	> 100 µM	> 100 µM												
CC(C)(C)n1cc(-c2ccnc(NCCNS(=O)(=O)c3cccc4ccccc34)c2)c(-c2cccc(F)c2)n1		37.9	19.2 µM	46.3	82.2 µM	37 µM		55.8 µM	10.6	26.7 µM	13.2	4.62	17.2	17.9 µM	21.4	> 100	16.6			5.9
O=C(/C=C/c1ccc(Cl)cc1)c1ccncc1	88.7	> 100	> 100 µM	> 100	> 100 µM	> 100 µM	83.6 µM	86.6 µM												
Clc1ccc(Nc2nc3ccccc3c3occc23)cc1		12.7	15.7 µM	17.3	> 50 µM	14.4 µM		13.8 µM	8.28	15.2 µM	6.41	8.74	9.19	6.46 µM	8.7	15.6	6.39			13.6
O=C(O/N=C1/CCCC/C1=C\c1ccccc1)c1ccc(Cl)cc1		36.2	> 100 µM	> 100	> 100 µM	> 100 µM	> 100 µM	> 100 µM												
Cn1cnc([N+](=O)[O-])c1Sc1nnc(C(F)(F)F)n1C	> 100	> 100	32.5 µM	> 100	63.6 µM	38.1 µM	> 100 µM	> 100 µM												

Compound	TGI (A498 renal) [µM]	TGI (HCC-2998 colon) [µM]	TGI (HCT-116 colon)	TGI (HOP-62 NSCLC) [µM]	TGI (K-562 leukemia)	TGI (SK-MEL-28 melanoma)	TGI (SNB-75 CNS)	TGI (KM12 colon)	GI50 (BT-549 breast) [µM]	TGI (BT-549 breast)	GI50 (HCC-2998 colon) [µM]	GI50 (HCT-116 colon) [µM]	GI50 (HOP-62 NSCLC) [µM]	GI50 (KM12 colon)	GI50 (NCI/ADR-RES ovarian) [µM]	TGI (NCI/ADR-RES ovarian) [µM]	GI50 (SK-MEL-28 melanoma) [µM]	GI50 (SNB-75 CNS) [µM]	GI50 (A498 renal) [µM]	GI50 (K-562 leukemia) [µM]
C=CCC(C)(C(=O)NCCC)C(=O)c1ccccc1O (stereo not drawn)	> 100	> 100	> 100 µM	> 100	> 100 µM	> 100 µM	> 100 µM	> 100 µM												
C1C[OH+]CC[OH+]CC[OH+]CC[OH+]CC[OH+]CC[OH+]1.[Cl-].[Ta+5]	> 100	> 100	> 100 µM	> 100	> 100 µM	> 100 µM	> 100 µM	> 100 µM			> 100	> 100	> 100	> 100 µM			> 100	23.8	> 100	> 100
CC1=N/C(=C\c2cccc3ccccc23)C(=O)O1	> 100	> 100	> 100 µM	> 100	> 100 µM	> 100 µM		> 100 µM												
O=c1c2cccnc2ncn1CCCN1CCOCC1		> 100	> 100 µM	> 100	> 100 µM	> 100 µM	> 100 µM	> 100 µM												
Cc1cccc(N2C(=O)C(=O)C(c3nc4ccccc4s3)C(=O)C2=O)c1C	> 100	> 100	> 100 µM	> 100	> 100 µM	> 100 µM	> 100 µM													
O=[N+]([O-])c1ccc(O)c2ncccc12		18.5	> 100 µM and 12.5 µM		> 100 µM and 15.5 µM	> 100 µM and 24.7 µM	> 100 µM and 26 µM	> 100 µM and 16.5 µM		> 100 µM and 24 µM	5.21			3.92 µM and 4.31 µM						
COc1cc(/C=C/C(=O)c2cc(OC)c(OC)c(OC)c2)cc(OC)c1OC	9.47	6.65	8.74 µM	18.2	> 100 µM	24.3 µM	9.41 µM	4.84 µM	2.48	9.26 µM	2.95	2.3	4.07	1.98 µM			8.57	2.31	2.47	2.46
CN(C)CCNC(=O)c1cccc2c1nc(-c1ccccn1)c1ccccc12	27.2	32.4	23 µM	36.2	48.8 µM	29.9 µM	47.1 µM	> 100 µM												
CC(C)c1ccc(O)c(=O)cc1	> 100	> 100	13.4 µM and 37.2 µM	> 100	> 53.1 µM and 14.6 µM	> 100 µM	> 100 µM	> 100 µM				3.92	3.75	5.28 µM	3.64	59.3		75.4		3.63
NC(=S)N/N=C(\C(=O)Nc1ccc(Cl)c(Cl)c1)C1=NN(c2ccccc2)C(c2cccc([N+](=O)[O-])c2)CC1=O (stereo not drawn)	> 100	> 100	11.6 µM	84.2	65.5 µM	> 100 µM	99.7 µM	> 100 µM												
O=C1CCC2CCOc3ccc(O)c1c32 (stereo not drawn)	> 100	> 100	> 100 µM	> 100	> 100 µM	> 100 µM	> 100 µM	> 100 µM												
CC1=C(c2cc(C(=O)Nc3cccc(C(F)(F)F)c3)nc(NC#N)n2)Sc2ccccc2N1	> 100	> 100	> 100 µM	> 100	> 100 µM	> 100 µM	> 100 µM	> 100 µM												
Cc1ccc([Se][Se]c2ccc(C)cc2)cc1	> 100	> 100	> 100 µM	> 100	28 µM	81.3 µM	42.2 µM	> 100 µM												
CCc1cccc(C(C)CC)c1NC(=O)CC1C(=O)Nc2ccccc2S1=O (stereo not drawn)	> 100	> 100	> 100 µM		> 100 µM	68.1 µM	49.4 µM													
O=C1CC(c2c[nH]c3ccccc23)C(=O)N1c1ccccc1 (stereo not drawn)	> 100	> 100	> 100 µM	> 100	> 100 µM	> 100 µM	> 100 µM	> 100 µM												
CC1=N/C(=C\c2ccc([N+](=O)[O-])cc2)C(=O)O1	> 100	> 100	> 100 µM	> 100	> 100 µM	> 100 µM		> 100 µM												
